Results as given in patent publication US12472230B2, “Peptides and methods of use thereof in treating uveitis” (Park Strategic Ventures LLC, priority 2019, dated 2025).
Converted amounts (≈) assume the structure as drawn. Residues, ends and D or L forms follow the SMILES beside them. No end group written: not given here. *: point of attachment. Myristoyl = CCCCCCCCCCCCCC(=O)*

Legend:
Solubility in HNS = assay type: physicochemical
T/2 in human plasma = assay type: in vitro ADME
[1] = system: release of inflammatory mediators from leukocyte cell types; experiment: Release of inflammatory mediators from leukocyte cell types, MANS versus RNS; assay type: cell-based, human; conditions: each of the cell types examined; time course of 0.5-3.0 hrs
Method: In an in vitro method to inhibit or attenuate the release of a mediator of inflammation such as those described herein, each of the cell types is preincubated with a peptide compound or peptide composition of this disclosure over a range of concentrations followed by incubation of these cells by a stimulator of release of inflammatory mediators, such as phorbol ester. The percent of inhibition of release of a mediator of inflammation is determined as compared to the release of the mediator in the absence of the peptide compound or peptide composition, such as in a specrophotometric readout of a concentration of the mediator released.

Compound | solubility (Solubility in HNS) | half-life (T/2 in human plasma) | also measured
H-GAQFSKTAAK-NH2 [BIO-11005] | 100 mg/mL | 20 min | 
CCCCCCCCCCCCCC(=O)NCC(=O)N[C@@H](C)C(=O)N[C@@H](CCC(N)=O)C(=O)N[C@@H](Cc1ccccc1)C(=O)N[C@@H](CO)C(=O)N[C@@H](CCCCN)C(=O)N[C@H](C(=O)N[C@@H](C)C(=O)N[C@@H](C)C(=O)N[C@@H](CCCCN)C(N)=O)[C@@H](C)O [BIO-11002] (Myristoyl-GAQFSKTAAK-NH2) | < 10 mg/mL |  | T/2 (human plasma), in words (T/2 in human plasma): stable
BIO-11018: SEQ ID NO 106 pegylated (GAQFSKTAAK; also: PEGylated, site not given here) |  |  | Solubility in HNS (Solubility in HNS): >100 mg/mL
Ac-GAQFSKTAAKGE-NH2 [BIO-11211] | 60 mg/mL | > 156 min | 
C[C@@H]1NC(=O)CNC(=O)[C@H](CCCCN)NC(=O)[C@H](C)NC(=O)[C@H](C)NC(=O)[C@H]([C@@H](C)O)NC(=O)[C@H](CCCCN)NC(=O)[C@H](CO)NC(=O)[C@H](Cc2ccccc2)NC(=O)[C@H](CCC(N)=O)NC1=O [BIO-11007] (cyclo(GAQFSKTAAK); ring closure inferred) | 150 mg/mL (≈ 151 mM) |  | 
CCCCCCCCCCCCCC(=O)NCC(=O)N[C@@H](C)C(=O)N[C@@H](CCC(N)=O)C(=O)N[C@@H](Cc1ccccc1)C(=O)N[C@@H](CO)C(=O)N[C@@H](CCCCN)C(=O)N[C@H](C(=O)N[C@@H](C)C(=O)N[C@@H](C)C(=O)N[C@@H](CCCCN)C(=O)NCC(=O)N[C@@H](CCC(=O)O)C(=O)N[C@@H](C)C(=O)N[C@@H](C)C(=O)N[C@@H](C)C(=O)N[C@@H](CCC(=O)O)C(=O)N[C@@H](CCCNC(=N)N)C(=O)N1CCC[C@H]1C(=O)NCC(=O)N[C@@H](CCC(=O)O)C(=O)N[C@@H](C)C(=O)N[C@@H](C)C(=O)N[C@H](C(=O)N[C@@H](C)C(=O)O)C(C)C)[C@@H](C)O [MANS] (Myristoyl-GAQFSKTAAKGEAAAERPGEAAVA-OH; C-terminus assumed) | < 5 mg/mL | 12 min | 
GTAPAAEGAGAEVKRASAEAKQAF [RNS] |  |  | release of inflammatory mediators [1]: not

Now from value to compound, other results behind:

solubility (Solubility in HNS) | Compound | half-life (T/2 in human plasma) | also measured
200 mg/mL | Ac-GAQFSKTA-OH [BIO-10803] |  | 
125 mg/mL | Ac-GAQFSKTAAKGEAAAERPGEAAVA-OH [Ac-MANS] |  | 
200 mg/mL (≈ 449 mM) | CC(=O)N[C@@H](C)C(=O)N[C@@H](CCCCN)C(=O)NCC(=O)N[C@@H](CCC(=O)O)C(=O)O [BIO-91201, Ac-AKGE-OH] (Ac-AKGE-OH) |  | 
200 mg/mL (≈ 450 mM) | CC(=O)N[C@@H](C)C(=O)N[C@@H](CCCCN)C(=O)NCC(=O)N[C@@H](CCC(=O)O)C(N)=O [BIO-91202, Ac-AKGE-NH2] (Ac-AKGE-NH2) |  | 
> 60 mg/mL | Ac-GAQFSKTAA-OH [BIO-10901] | 5 min | 
~1 mg/mL (≈ 1.63 mM) | CCCCCCCCCCCCCC(=O)N[C@@H](C)C(=O)N[C@@H](CCCCN)C(=O)NCC(=O)N[C@@H](CCC(=O)O)C(=O)O [BIO-91200, Ma-AKGE-OH] (Myristoyl-AKGE-OH) |  | 
15 mg/mL (≈ 12.3 mM) | CCCCCCCCCCCCCC(=O)NCC(=O)N[C@@H](C)C(=O)N[C@@H](CCC(N)=O)C(=O)N[C@@H](Cc1ccccc1)C(=O)N[C@@H](CO)C(=O)N[C@@H](CCCCN)C(=O)N[C@H](C(=O)N[C@@H](C)C(=O)N[C@@H](C)C(=O)N[C@@H](CCCCN)C(=O)O)[C@@H](C)O [BIO-11000] (Myristoyl-GAQFSKTAAK-OH) | 72 min | 
